Literature values in PMC10006169, “A phase I trial of LXS196, a protein kinase C (PKC) inhibitor, for metastatic uveal melanoma” (British Journal of Cancer, 2023).

Key:
patients with MUM = system: patients with MUM; parameters: method as in PMID 32029634; conditions: cited from earlier work
92.1 human UM xenograft = system: 92.1 human UM xenograft; parameters: method as in PMID 27507190; conditions: doses below MTD; cited from earlier work
[1] = system: UM cell lines containing mutant GNAQ or GNA11; conditions: cited from earlier work
[2] = system: HLA-A*02:01-positive patients with first-line MUM; parameters: method as in PMID 34551229; conditions: cited from earlier work

Compound | Estimated median PFS (patients with MUM; 95% CI: 2.5–3.6) | ORR (patients with MUM; across all doses) | Dose-limiting toxicities (patients with MUM) | Median duration of SD (patients with MUM) | Stable disease (SD) as best response (patients with MUM) | Tumour effect as single agent (92.1 human UM xenograft) | Sensitivity of UM cell lines carrying Gα subunit mutations [1] | Hazard ratio (OS vs Investigator's choice) ([2]; 95% CI: 0.37–0.71) | 1-year OS rate ([2]; control group 59%)
CN1CCN(c2nc(C3=C(c4c[nH]c5ccccc45)C(=O)NC3=O)c3ccccc3n2)CC1 [AEB071, 3-(1H-Indol-3-yl)-4-[2-(4-methylpiperazin-1-yl)quinazolin-4-yl]pyrrole-2,5-dione] | 3.5 months | 3% | increased frequency of dose-limiting gastrointestinal (GI) toxicities associated with increasing dose | 3.75 months | 50% | stasis | selective sensitivity | – | –
tebentafusp: bispecific fusion protein (Immunocore) designed to redirect T cells to gp100-positive cells | – | – | – | – | – | – | – | 0.51 | 73%
